Assay results taken from ChEMBL document CHEMBL1143920, “Meclonazepam analogues as potential new antihelmintic agents” (Bioorg Med Chem Lett, 2008).
In brackets after ≈: the same amount, converted by molar mass.

What follows are compounds tested on Schistosoma mansoni (assay: Anthelmintic activity against Schistosoma mansoni).
Format: functional, organism-based
Compound `CC1N=C(c2ccccc2Cl)c2c(/N=N/c3ccc(O)c(C(C)C)c3)cccc2NC1=O` (centres undefined) has an IC50 of 5.79 µg/mL (≈ 13 µM).
For `Cc1cc(C)c(O)c(/N=N/c2cccc3c2C(c2ccccc2Cl)=NC(C)C(=O)N3)c1` (centres undefined), the IC50 was greater than 10 µg/mL.
For `CCc1cc(/N=N/c2cccc3c2C(c2ccccc2Cl)=NC(C)C(=O)N3)ccc1O` (centres undefined), the IC50 was 5.79 µg/mL (≈ 13.4 µM).
With `CC1N=C(c2ccccc2Cl)c2cc(N)ccc2NC1=O` (centres undefined) the IC50 was greater than 10 µg/mL.
With `CC1N=C(c2ccccc2Cl)c2c(/N=N\c3ccc(O)c4ccccc34)cccc2NC1=O` (centres undefined) the IC50 was 9.1 µg/mL (≈ 20 µM).
For `CC1N=C(c2ccccc2Cl)c2c(/N=N/c3c(Cl)cc(O)cc3Cl)cccc2NC1=O` (centres undefined), the IC50 was 5.79 µg/mL (≈ 12.2 µM).
`CC1N=C(c2ccccc2Cl)c2c(/N=N/c3c(F)cc(O)cc3F)cccc2NC1=O` (centres undefined) was tested, and the IC50 was 3.8 µg/mL (≈ 8.62 µM).
Compound `CC1NC(c2ccccc2Cl)c2cc([N+](=O)[O-])ccc2NC1=O` (centres undefined) has an IC50 of 1.3 µg/mL (≈ 3.92 µM).
`CC1NC(c2ccccc2Cl)c2cc([N+](=O)[O-])ccc2NC1=S` (centres undefined) was tested, and the IC50 was 4.75 µg/mL (≈ 13.7 µM).
Work on `CC1N=C(c2ccccc2Cl)c2c(/N=N\c3c(O)ccc4ccccc34)cccc2NC1=O` (centres undefined) yielded an IC50 greater than 10 µg/mL.
In the case of `CC1N=C(c2ccccc2Cl)c2c(/N=N/c3ccc(O)cc3)cccc2NC1=O` (centres undefined), the IC50 is reported as greater than 10 µg/mL.
Compound `CC1N=C(c2ccccc2Cl)c2c(/N=N/c3ccc(O)cc3Br)cccc2NC1=O` (centres undefined) has an IC50 of 10 µg/mL (≈ 20.7 µM).
`CC1N=C(c2ccccc2Cl)c2cc([N+](=O)[O-])ccc2NC1=S` (centres undefined) showed an IC50 of 0.35 µg/mL (≈ 1.01 µM).
`C[C@@H]1N=C(c2ccccc2Cl)c2cc([N+](=O)[O-])ccc2NC1=O` [MECLONAZEPAM] gave an IC50 of 0.37 µg/mL (≈ 1.12 µM).
